We go through 22 compounds from US9957264B2 (Merck Sharp & Dohme Corp., priority 2013, dated 2018).

Experiment [1] deals with JAK1 (recombinant purified GST-tagged catalytic domain) (Homo sapiens (Human), UniProt P23458). As to the kind of experiment: Jak Biochemical HTRF Assay (JAK1). To be noted: [ATP] 31.8 μM. An outline of the steps:
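HTRF kinase format: compounds pre-equilibrated with recombinant GST-tagged JAK1 or JAK2 catalytic domain, then ATP started a 120 min room-temperature reaction on a common peptide substrate. Phosphopeptide detected via Eu-pY20/streptavidin-Dylight 650 after EDTA quench; percent inhibition versus log concentration fitted (4-parameter) to give IC50.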

For experiment [2], the target named is JAK2 (recombinant purified GST-tagged catalytic domain) (Homo sapiens (Human), UniProt O60674). The experiment can be described thus: Jak Biochemical HTRF Assay (JAK2). To be noted: [ATP] 8.5 μM.

pIC50: −log10 of the molar value.

Chain of JAK2 (recombinant purified GST-tagged catalytic domain) (O60674 849-1124): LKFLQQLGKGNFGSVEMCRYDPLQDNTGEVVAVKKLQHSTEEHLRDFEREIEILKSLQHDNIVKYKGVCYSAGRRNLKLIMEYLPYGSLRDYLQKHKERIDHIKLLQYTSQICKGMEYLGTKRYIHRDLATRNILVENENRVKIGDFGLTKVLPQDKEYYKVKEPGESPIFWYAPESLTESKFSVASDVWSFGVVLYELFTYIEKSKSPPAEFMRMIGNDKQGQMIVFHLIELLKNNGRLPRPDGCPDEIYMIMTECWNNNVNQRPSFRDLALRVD
Chain of JAK1 (recombinant purified GST-tagged catalytic domain) (P23458 875-1153): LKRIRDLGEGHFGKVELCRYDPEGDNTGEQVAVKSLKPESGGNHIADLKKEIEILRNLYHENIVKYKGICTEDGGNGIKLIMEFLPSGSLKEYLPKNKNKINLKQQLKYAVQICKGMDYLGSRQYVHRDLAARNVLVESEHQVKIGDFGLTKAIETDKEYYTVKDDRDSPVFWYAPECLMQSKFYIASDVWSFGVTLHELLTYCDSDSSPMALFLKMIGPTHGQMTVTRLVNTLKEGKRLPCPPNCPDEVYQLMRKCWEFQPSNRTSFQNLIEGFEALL

Turning to `CC(C)(C)OC(=O)[C@@H]1CC[C@@](CC#N)(n2nc(Nc3ccc4c(c3)CN(C3CCCC3)C4=O)c3c(=O)[nH]ccc32)CO1` [Example 5-102, (2S,5S)-tert-butyl 5-(cyanomethyl)-5-(3-((2-cyclopentyl-1-oxoisoindolin-5-yl)amino)-4-oxo-4,5-dihydro-1H-pyrazolo[4,3-c]pyridin-1-yl)tetrahydro-2H-pyran-2-carboxylate], the pIC50 was 10.00 in experiment [1] and 9.70 in experiment [2].

In the case of `CC(C)S(=N)(=O)c1ccc(Nc2nn([C@]3(CC#N)CCCOC3)c3cc[nH]c(=O)c23)cc1` (single isomer, unassigned) [Example 5-233, 2-((3S)-3-(4-oxo-3-((4-(propan-2-yl-(S or R)-sulfonimidoyl)phenyl)amino)-4,5-dihydro-1H-pyrazolo[4,3-c]pyridin-1-yl)tetrahydro-2H-pyran-3-yl)acetonitrile], the pIC50 was 9.44 in experiment [1] and 9.40 in experiment [2].

For `CC1(C)C(=O)Nc2cc(Nc3nn([C@]4(CC#N)CCCOC4)c4cc[nH]c(=O)c34)ccc21` [Example 21-4, [(3S)-3-{3-[(3,3-dimethyl-2-oxo-2,3-dihydro-1H-indol-6-yl)amino]-4-oxo-4,5-dihydro-1H-pyrazolo[4,3-c]pyridin-1-yl}tetrahydro-2H-pyran-3-yl]acetonitrile], the values for the pIC50 in experiment [1] and in experiment [2] were 10.05 and 9.72, respectively.

For `COC(=O)N1CCC(CC#N)(n2nc(Nc3ccc(C#N)cc3)c3c(=O)[nH]ccc32)CC1` [Example 5-145, methyl 4-(cyanomethyl)-4-(3-((4-cyanophenyl)amino)-4-oxo-4,5-dihydro-1H-pyrazolo[4,3-c]pyridin-1-yl)piperidine-1-carboxylate], the pIC50 in experiment [1] was 9.72; in experiment [2], 8.91.

Regarding `CC(C)(C)OC(=O)[C@@H]1CC[C@@](CC#N)(n2nc(Nc3ccc([C@@H](N)C(F)(F)F)cc3)c3c(=O)[nH]ccc32)CO1` (single isomer, unassigned) [Example 5-51, (2S,5S)-tert-butyl 5-(3-((4-((R or S)-1-amino-2,2,2-trifluoroethyl)phenyl)amino)-4-oxo-4,5-dihydro-1H-pyrazolo [4,3-c]pyridin-1-yl)-5-(cyanomethyl)tetrahydro-2H-pyran-2-carboxylate], the pIC50 was 9.74 in experiment [1] and 9.31 in experiment [2].

Turning to `CC1CCN1S(=O)(=O)c1ccc(Nc2nn([C@]3(CC#N)CCCOC3)c3cc[nH]c(=O)c23)cc1` (single isomer, unassigned) [Example 5-108, [(3S)-3-{3-[(4-{[(2R or 2S)-2-methylazetidin-1-yl]sulfonyl}phenyl)amino]-4-oxo-4,5-dihydro-1H-pyrazolo[4,3-c]pyridin-1-yl}tetrahydro-2H-pyran-3-yl]acetonitrile], the pIC50 in experiment [1] is 9.92; in experiment [2], 9.64.

On to `N#CC[C@]1(n2nc(Nc3ccc(OC(F)(F)F)cc3)c3c(=O)[nH]ccc32)CC[C@H](Nc2ccccc2)CC1` [Example 18-18, Trans 2-(1-(4-oxo-3-((4-(trifluoromethoxy)phenyl)amino)-4,5-dihydro-1H-pyrazolo[4,3-c]pyridin-1-yl)-4-(phenylamino)cyclohexyl)acetonitrile], for which the figures for the pIC50 in experiment [1] and in experiment [2] were 8.14 and 7.26, respectively.

Regarding `N#CC[C@]1(n2nc(Nc3ccc(Cl)c(F)c3)c3c(=O)[nH]ccc32)CC[C@H](NC2CCCCC2)CC1` [Example 18-21, Trans 2-(1-(3-((4-chloro-3-fluorophenyl)amino)-4-oxo-4,5-dihydro-1H-pyrazolo[4,3-c]pyridin-1-yl)-4-(cyclohexylamino)cyclohexyl)acetonitrile], the figures for the pIC50 in experiment [1] and in experiment [2] were 9.92 and 7.19, respectively.

For the compound `CC(C)(C)OC(=O)[C@@H]1CC[C@@](CC#N)(n2nc(Nc3ccc(S(=O)(=O)C4CC4)cc3)c3c(=O)[nH]ccc32)CO1` [Example 5-99, (2S,5S)-tert-butyl 5-(cyanomethyl)-5-(3-((4-(cyclopropylsulfonyl)phenyl)amino)-4-oxo-4,5-dihydro-1H-pyrazolo [4,3-c]pyridin-1-yl) tetrahydro-2H-pyran-2-carboxylate], the results for the pIC50 in experiment [1] and in experiment [2] were 10.30 and 9.85, respectively.

Turning to `N#CCC1(n2nc(Nc3ccc(S(=O)(=O)C(F)F)cc3)c3c(=O)[nH]ccc32)CCN(c2ccc(C#N)cn2)CC1` [Example 15-3, 6-(4-(cyanomethyl)-4-(3-((4((difluoromethyl)sulfonyl)phenyl)amino)-4-oxo-4,5-dihydro-1H-pyrazolo[4,3-c]pyridin-1-yl)piperidin-1-yl)nicotinonitrile], the figures for the pIC50 in experiment [1] and in experiment [2] were 9.60 and 9.59, respectively.

Turning to `CNC(=O)c1ccc(Nc2nn(C3(CC#N)CCCC3)c3cc[nH]c(=O)c23)cc1` [Example 5-128, 4-((1-(1-(cyanomethyl)cyclopentyl)-4-oxo-4,5-dihydro-1H-pyrazolo[4,3-c]pyridin-3-yl)amino)-N-methylbenzamide.], the pIC50 in experiment [1] was 9.66; in experiment [2] it was 8.65.

For the compound `CO[C@H](c1ccc(Nc2nn([C@]3(CC#N)CC[C@@H](C(=O)OC(C)(C)C)OC3)c3cc[nH]c(=O)c23)cc1)C(F)(F)F` (single isomer, unassigned) [Example 21-7, (2S,5S)-tert-butyl 5-(cyanomethyl)-5-(4-oxo-3-((4-((R or S)-2,2,2-trifluoro-1-methoxyethyl)phenyl)amino)-4,5-dihydro-1H-pyrazolo[4,3-c]pyridin-1-yl)tetrahydro-2H-pyran-2-carboxylate], the figures for the pIC50 in experiment [1] and in experiment [2] were 9.39 and 9.05, respectively.

For the compound `CS(=O)(=O)c1ccc(Nc2nn(C3(CC#N)CCN(c4cc(C(F)(F)F)ccn4)CC3)c3cc[nH]c(=O)c23)cc1` [Example 15-1, 2-(4-(3-((4-(methylsulfonyl)phenyl)amino)-4-oxo-4,5-dihydro-1H-pyrazolo[4,3-c]pyridin-1-yl)-1-(4-(trifluoromethyl)pyridin-2-yl)piperidin-4-yl)acetonitrile], the negative-log IC50 (pIC50) is 9.80 in experiment [1] and 9.43 in experiment [2].

As for `CN(C)S(=O)(=O)c1ccc(Nc2nn(C3(CC#N)CCN(C(=O)c4ccccc4Cl)CC3)c3cc[nH]c(=O)c23)cc1` [Example 9-15, 4-[(1-{1-[(2-chlorophenyl)carbonyl]-4-(cyanomethyl)piperidin-4-yl}-4-oxo-4,5-dihydro-1H-pyrazolo[4,3-c]pyridin-3-yl)amino]-N,N-dimethylbenzenesulfonamide], the pIC50 in experiment [1] is 9.09; in experiment [2], 8.08.

Regarding `CC(C)(C)OC(=O)N1CCC(CC#N)(n2nc(Nc3ccc(C4(C(F)(F)F)CCN(Cc5ccccc5)C4)cc3)c3c(=O)[nH]ccc32)CC1` (single isomer, unassigned) [Example 5-281, (S or R) tert-butyl 4-(3-((4-(1-benzyl-3-(trifluoromethyl)pyrrolidin-3-yl)phenyl)amino)-4-oxo-4,5-dihydro-1H-pyrazolo[4,3-c]pyridin-1-yl)-4-(cyanomethyl)piperidine-1-carboxylate], the pIC50 is 8.10 in experiment [1] and 8.00 in experiment [2].

As for `COC(=O)N1CCC(CC#N)(n2nc(Nc3ccc4c(c3)CN(C)S4(=O)=O)c3c(=O)[nH]ccc32)CC1` [Example 5-70, methyl 4-(cyanomethyl)-4-[3-[(2-methyl-1,1-dioxo-2,3-dihydro-1,2-benzothiazol-5-yl)amino]-4-oxo-1H,4H,5H-pyrazolo[4,3-c]pyridin-1-yl]piperidine-1-carboxylate], the values for the pIC50 in experiment [1] and in experiment [2] were 10.15 and 9.24, respectively.

For the compound `CC(C)NC(C)(C)c1ccc(Nc2nn([C@@]3(CC#N)CCN(C(=O)OC(C)(C)C)C[C@H]3F)c3cc[nH]c(=O)c23)cc1` [Example 5-273, tert-butyl (3R,4R)-4-(cyanomethyl)-3-fluoro-4-{3-[(4-{1-methyl-1-[(1-methylethyl)amino]ethyl}phenyl)amino]-4-oxo-4,5-dihydro-1H-pyrazolo[4,3-c]pyridin-1-yl}piperidine-1-carboxylate], the results for the pIC50 in experiment [1] and in experiment [2] were 9.77 and 9.85, respectively.

As for `CC1(C)CCCN1S(=O)(=O)c1ccc(Nc2nn([C@]3(CC#N)CCCOC3)c3cc[nH]c(=O)c23)cc1` [Example 5-107, {(3S)-3-[3-({4-[(2,2-dimethylpyrrolidin-1-yl)sulfonyl]phenyl}amino)-4-oxo-4,5-dihydro-1H-pyrazolo[4,3-c]pyridin-1-yl]tetrahydro-2H-pyran-3-yl} acetonitrile], the pIC50 is 9.70 in experiment [1] and 9.48 in experiment [2].

Take `CC(C)(C)N1Cc2cc(Nc3nn([C@]4(CC#N)CC[C@@H](N5CC(F)C5)CC4)c4cc[nH]c(=O)c34)ccc2S1(=O)=O` [Example 18-35]: the pIC50 in experiment [1] and in experiment [2] was 9.68 in each case.

On to `CN(C(C)(C)C)S(=O)(=O)c1ccc(Nc2nn(C3(CC#N)CCCC3)c3cc[nH]c(=O)c23)cc1` [Example 5-134, N-(tert-butyl)-4-((1-(1-(cyanomethyl)cyclopentyl)-4-oxo-4,5-dihydro-1H-pyrazolo[4,3-c]pyridin-3-yl)amino)-N-methylbenzene sulfonamide], for which the pIC50 is 9.15 in experiment [1] and 8.97 in experiment [2].

Consider `CS(=O)(=O)c1ccc(Nc2nn(C3(CC#N)CCN(c4ccc(C(F)(F)F)cn4)CC3)c3cc[nH]c(=O)c23)cc1` [Example 15-4, 2-(4-(3-((4-(methylsulfonyl)phenyl)amino)-4-oxo-4,5-dihydro-1H-pyrazolo[4,3-c]pyridin-1-yl)-1-(5 (trifluoromethyl)pyridin-2-yl)piperidin-4-yl)acetonitrile], for which the results for the pIC50 in experiment [1] and in experiment [2] were 9.70 and 9.26, respectively.

For the compound `CN(C)S(=O)(=O)c1ccc(Nc2nn(C3(CC#N)CCN(Cc4c(F)cccc4F)CC3)c3cc[nH]c(=O)c23)cc1` [Example 8-10, 4-({1-[4-(cyanomethyl)-1-(2,6-difluorobenzyl)piperidin-4-yl]-4-oxo-4,5-dihydro-1H-pyrazolo[4,3-c]pyridin-3-yl}amino)-N,N-dimethylbenzenesulfonamide], the values for the pIC50 in experiment [1] and in experiment [2] were 9.72 and 9.54, respectively.
